Measurements as given in patent US20030186954A1, “Estriol to treat and prevent cardiovascular disease” (priority 2002, published 2003).
Read-outs that look alike come from different tables or passages of the source.

Assays:
[1] = Steroid levels in plasma and urine of estriol cream treated monkeys; settings: urine collected just prior to cardiac catheterization after 4 weeks daily 0.3% estriol topical cream; n = 5
[2] = Levels of estriol in saliva of human volunteers treated with skin cream; type: in vivo; settings: topical; for concentration at 24 h: human volunteers, 24 hours after second application, read-out: Salivary concentration of estriol (group average)
Protocol: Four human volunteers applied one of three estriol skin cream formulations in a base of polyethylene glycol, sorbitol, and water. The formulations were as described above in Example 3, except that one formulation contained 0.1% estriol, a second formulation contained 0.5% estriol, and a third contained 1% estriol. Each volunteer applied […] of one of the formulations daily for 2 days for a total applied dosage of 4 mg, 20 mg, and 40 mg of estriol, respectively.
Concentrations of estriol in saliva was measured 24 hours after the second application of the estriol cream formulations. The group that applied the 0.1% estriol averaged a salivary concentration of about 300 pg/ml. The 0.5% group averaged about 1500 pg/ml. The 1%group averaged about 4000 pg/ml.
In addition, salivary concentration of estriol was measured ten minutes following the application of 20 mg of estriol in skin cream. A concentration of 10 ng/ml was found, indicating rapid absorption.

[3] = system: coronary arteries of ovariectomized female rhesus monkeys (serotonin + U46619 induced vasospasm); experiment: Drug-induced (serotonin + U46619) coronary vasospasm in ovariectomized rhesus monkeys, angiography; type: in vivo, rhesus monkeys (Macaca mulatta); settings: for Monkeys suffering a vasospasm during the study: estriol cream treated ovariectomized monkeys, 12 step intracoronary serotonin+U46619 injection protocol
Protocol: The monkeys were entered into the study no less than 3 months after ovariectomy.
Angiography at the Dotter Institute, after overnight fasting, began with preanesthesia with ketamine (10 mg/kg body weight intramuscular), intubation with an endotracheal tube and a light surgical plane of anesthesia with isoflurane (induced at 1.5% to 3% maintained at 0.75% to 1.25%), vaporized with 33% nitrous oxide and 67% oxygen, or with 100% oxygen. Bilateral femoral intraarterial 3F catheters allowed for coronary catheterization and continuous recording of systemic arterial blood pressure and heart rate, which were maintained close to the initial anesthetic value for each monkey. Intravenous heparin (1,000 U) was injected, and up to 120 ml of pyruvated Ringer's solution and 0 to 50 ml of dextran solution were used (as needed) to maintain diastolic blood pressure ≧60 mm Hg. A heating pad assisted in maintenance of a body temperature decrease ≦2° C. of preanesthesia body temperature (monitored by rectal thermometer). An electrocardiogram (ECG) recorded on a Gould eight-channel recorder, cutaneous arterial oxygen saturation, respiratory rate and end-tidal CO2 were also monitored.
Entire experiments were recorded on videotape (with episodic fluoroscopic imaging and continuous voice annotation) to permit computerized quantitative coronary angiography. […]
Placement of the 3F catheter (except as noted later) was adjusted to provide sufficient filling with radio-opaque contrast medium, limited reflux and isolation of a branch of the coronary arterial tree. […] Fluoroscopic images were recorded on film using an OEC model 9800 digital x-ray system with fluoroscopic C-arm, digitally recorded, and evaluated in subsequent analysis. All procedures including a brief 0.2 ml injection of Hexabrix for optimal quantitative angiography were recorded on videotape for subsequent computer analysis. […]
After 4 weeks of daily treatment with 0.2 mg/kg of the estriol topical cream, the monkeys were studied by coronary catheterization, and reactivity was assessed by injection of serotonin (100 μM) and U46619 (1 μM).

## C[C@]12CC[C@@H]3c4ccc(O)cc4CC[C@H]3[C@@H]1C[C@@H](O)[C@@H]2O [Estriol]
[1]
  E3 absorbed, urine (total): ***2412 +/− 316 (n = 5) ng/ml
[2]; 0.1% estriol skin cream, 4 ml daily for 2 days (4 mg)
  concentration at 24 h: ~0.3 ng/mL
[2]; 0.5% estriol skin cream, 4 ml daily for 2 days (20 mg)
  concentration at 24 h: ~1.5 ng/mL
[2]; 1% estriol skin cream, 4 ml daily for 2 days (40 mg)
  concentration at 24 h: ~4 ng/mL
[2]; human, ten minutes following application of 20 mg of estriol in skin cream, read-out: Salivary concentration of estriol
  concentration at 10 min: 10 ng/mL
[3]
  Monkeys suffering a vasospasm during the study: None of the monkeys
[3]; listed as E3
  Monkeys suffering a vasospasm during the study: none of the E3 treated monkeys showed a vasospasm
[3]; ovariectomized monkeys, 4 weeks daily 0.3% estriol topical cream (0.2 mg/kg), intracoronary serotonin 100 μM + U46619 1 μM, criteria <33% of control diameter for >5 minutes
  Vasospasm criteria met (incidence): 0/6
